Assay results reported in ChEMBL document CHEMBL1201862, “PubChem BioAssay data set” (2004).
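A five-concentration, 48-hour dose response in 96-well plates underlies each endpoint, interpolated linearly between surrounding concentrations. GI50 marks 50% less growth.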 Active and inactive are the calls of the source. Rule as the data show it: active = GI50 up to about 1.1 µM and inactive = higher.

Columns and labels:
Assay in all cases: DTP human tumour cell line panel, 48 h
[1] = tested on: A498
[2] = tested on: SW-620
[3] = tested on: Malme-3M
[4] = tested on: HOP-62
[5] = tested on: K562
[6] = tested on: ACHN
[7] = tested on: OVCAR-4
[8] = tested on: HCT-116
[9] = tested on: OVCAR-5
[10] = tested on: HCT-15
[11] = tested on: RXF 393
[12] = tested on: NCI-H522
[13] = tested on: HT-29
[14] = tested on: M14
[15] = tested on: MOLT-4
[16] = tested on: UO-31
[17] = tested on: OVCAR-8
[18] = tested on: CAKI-1
[19] = tested on: SNB-75
[20] = tested on: SK-MEL-5

Row | SMILES | GI50 [1] | GI50 [2] | GI50 [3] | GI50 [4] | GI50 [5] | GI50 [6] | GI50 [7] | GI50 [8] | GI50 [9] | GI50 [10] [µM] | GI50 [11] | GI50 [12] | GI50 [13] | GI50 [14] | GI50 [15] | GI50 [16] | GI50 [17] | GI50 [18] | GI50 [19] | GI50 [20]
1 | N#CCCOCN(CO)c1nc(N(CO)COCCC#N)nc(N(CO)COCCC#N)n1 | > 100 µM (inactive) | 16.1 µM (inactive) | 24.9 µM (inactive) | > 100 µM (inactive) | 25 µM (inactive) | 28.6 µM (inactive) | 26.9 µM (inactive) | 25.7 µM (inactive) | 35.2 µM (inactive) | 18.2 | 20.9 µM (inactive) | 22.3 µM (inactive) | 29.1 µM (inactive) | 21 µM (inactive) | 21.9 µM (inactive) | 21.7 µM (inactive) | 15.8 µM (inactive) |  |  | 
2 | O=C1c2ccccc2N1C(=O)c1ccccc1[N+](=O)[O-] | > 100 µM (inactive) | > 100 µM (inactive) | 29.6 µM (inactive) | 45.4 µM (inactive) | > 100 µM (inactive) | 78.9 µM (inactive) | 30 µM (inactive) | 36.1 µM (inactive) | > 100 µM (inactive) | 44.2 |  | 91.2 µM (inactive) | 88.1 µM (inactive) | 59.7 µM (inactive) | > 100 µM (inactive) | > 100 µM (inactive) | 25.1 µM (inactive) | 92 µM (inactive) | 53.3 µM (inactive) | 51.8 µM (inactive)
3 | O=C(NCC(O)COc1ccccc1)c1ccccc1O (configuration not stated) | > 100 µM (inactive) | > 100 µM (inactive) | > 100 µM (inactive) | > 100 µM (inactive) | > 100 µM (inactive) | > 100 µM (inactive) | > 100 µM (inactive) | > 100 µM (inactive) | > 100 µM (inactive) | > 100 | > 100 µM (inactive) | 55.6 µM (inactive) |  | > 100 µM (inactive) | 14.5 µM (inactive) | 47.8 µM (inactive) | > 100 µM (inactive) | > 100 µM (inactive) |  | 63.5 µM (inactive)
4 | OCCNCO | > 100 µM (inactive) | > 100 µM (inactive) |  | > 100 µM (inactive) | > 100 µM (inactive) | > 100 µM (inactive) | > 100 µM (inactive) | > 100 µM (inactive) | > 100 µM (inactive) | > 100 | > 100 µM (inactive) | > 100 µM (inactive) | > 100 µM (inactive) | > 100 µM (inactive) | > 100 µM (inactive) | > 100 µM (inactive) | > 100 µM (inactive) | > 100 µM (inactive) | > 100 µM (inactive) | > 100 µM (inactive)
5 | Cc1ccnc2nc(-c3cccc(Cl)c3)cc(O)c12 | 0.234 µM (active) | 0.0524 µM (active) |  | 0.0708 µM (active) | < 0.0143 µM (active) | 1.34 µM (inactive) | > 91.4 µM (inactive) | 0.0269 µM (active) |  | 0.0407 | 2.77 µM (inactive) | 0.0459 µM (active) | 0.0401 µM (active) | 0.0822 µM (active) | 0.0658 µM (active) |  | 0.308 µM (active) | 1.33 µM (inactive) | > 10 µM (inactive) | 0.038 µM (active)
6 | NNc1nnc(CCCCCCCCc2nnc(NN)n2N)n1N | > 100 µM (inactive) | > 100 µM (inactive) |  | 37.2 µM (inactive) | 14 µM (inactive) | > 100 µM (inactive) | > 100 µM (inactive) | > 100 µM (inactive) | > 100 µM (inactive) | > 100 | > 100 µM (inactive) | 38.7 µM (inactive) | > 100 µM (inactive) | > 100 µM (inactive) | 33.2 µM (inactive) | > 100 µM (inactive) | 17.1 µM (inactive) | > 100 µM (inactive) | 60.3 µM (inactive) | > 100 µM (inactive)
7 | Cc1cc(Br)ccc1/N=N/C1C(=O)ON=C1c1ccccc1 (configuration not stated) | 35 µM (inactive) | > 100 µM (inactive) | > 100 µM (inactive) | > 100 µM (inactive) | 45 µM (inactive) | 63.4 µM (inactive) | > 100 µM (inactive) | 46.5 µM (inactive) | > 100 µM (inactive) |  | 52.4 µM (inactive) | 40.6 µM (inactive) | 47.1 µM (inactive) | > 100 µM (inactive) | 31.3 µM (inactive) | 46.9 µM (inactive) | > 100 µM (inactive) |  | > 100 µM (inactive) | 53.5 µM (inactive)
8 | CCCCc1c2c(nc3c1CCC/C3=C\c1ccccc1)C(=O)CCC2 | 19.4 µM (inactive) | 22 µM (inactive) | 26 µM (inactive) | 20.9 µM (inactive) | 18.2 µM (inactive) | 25.7 µM (inactive) | 28.4 µM (inactive) | 20 µM (inactive) | 19.5 µM (inactive) | 21.8 | 17 µM (inactive) | 13.2 µM (inactive) | 15.5 µM (inactive) | 21.1 µM (inactive) | 13.8 µM (inactive) | 24.5 µM (inactive) | 24.5 µM (inactive) |  | 29.1 µM (inactive) | 16.3 µM (inactive)
9 | CNc1ncnc2c1nc(NC1CCCC1)n2C1OC(CO)C(O)C1O (configuration not stated) | > 100 µM (inactive) | > 100 µM (inactive) | > 100 µM (inactive) | > 100 µM (inactive) |  | > 100 µM (inactive) | > 100 µM (inactive) | > 100 µM (inactive) | > 100 µM (inactive) | > 100 | > 100 µM (inactive) | > 100 µM (inactive) | > 100 µM (inactive) | > 100 µM (inactive) | > 100 µM (inactive) | > 100 µM (inactive) | > 100 µM (inactive) | > 100 µM (inactive) |  | > 100 µM (inactive)
10 | Cn1c(O)c(C(=O)Nc2cccs2)c(=O)[nH]c1=S | 19.9 µM (inactive) | 26.2 µM (inactive) | 16.1 µM (inactive) | 17.4 µM (inactive) | 51.9 µM (inactive) | 12.9 µM (inactive) | 22.5 µM (inactive) | 13.4 µM (inactive) | 28.6 µM (inactive) | 12.7 |  | 13.5 µM (inactive) | 18.2 µM (inactive) | 23.1 µM (inactive) | 24.7 µM (inactive) | 12.2 µM (inactive) | 14 µM (inactive) | 13 µM (inactive) | 16.9 µM (inactive) | 13.6 µM (inactive)
11 | c1ccc(CCN2CCOCC2)nc1 | > 100 µM (inactive) | > 100 µM (inactive) | > 100 µM (inactive) | > 100 µM (inactive) | > 100 µM (inactive) | > 100 µM (inactive) | > 100 µM (inactive) | > 100 µM (inactive) | > 100 µM (inactive) | > 100 | > 100 µM (inactive) | > 100 µM (inactive) | > 100 µM (inactive) | > 100 µM (inactive) |  | > 100 µM (inactive) | > 100 µM (inactive) | > 100 µM (inactive) |  | > 100 µM (inactive)
12 | CC(C)(C)c1cc2c(c(C(C)(C)C)c1O)CC(=O)O2 | 32.1 µM (inactive) | 42.4 µM (inactive) |  | 30.3 µM (inactive) | 34 µM (inactive) | 22.8 µM (inactive) | 27.7 µM (inactive) | 30.1 µM (inactive) | 71.6 µM (inactive) | 45.9 | 22.1 µM (inactive) | 46 µM (inactive) | 28.3 µM (inactive) | 25.8 µM (inactive) | 35.1 µM (inactive) | 26.3 µM (inactive) | 32.2 µM (inactive) |  |  | 17.1 µM (inactive)
13 | COc1cc([N+](=O)[O-])ccc1NC(=O)c1cccc([N+](=O)[O-])c1O | 17.9 µM (inactive) | 30.8 µM (inactive) | 7.67 µM (inactive) | 36.6 µM (inactive) | 20.8 µM (inactive) | 12.6 µM (inactive) | 23.4 µM (inactive) | 26.4 µM (inactive) | 41.3 µM (inactive) | 18.1 |  | 11.6 µM (inactive) | 25.5 µM (inactive) | 45 µM (inactive) | 30.9 µM (inactive) | 16.2 µM (inactive) | 29 µM (inactive) | 17 µM (inactive) | 21.1 µM (inactive) | 6.46 µM (inactive)
14 | COC(=O)C1=CCC[C@H]2[C@@]1(COC(C)=O)CC[C@@H](C)[C@]2(C)CC(=O)c1ccoc1 | 16.7 µM (inactive) | 21.1 µM (inactive) |  |  |  | 16.9 µM (inactive) | 14.5 µM (inactive) | 9.91 µM (inactive) | 49 µM (inactive) | 13.9 | 19.6 µM (inactive) | 7.87 µM (inactive) | 8.65 µM (inactive) | 23.5 µM (inactive) | 10.5 µM (inactive) | 13.4 µM (inactive) | 17.9 µM (inactive) | 18.6 µM (inactive) | 12.7 µM (inactive) | 8.89 µM (inactive)
15 | COc1cc2c3c4[n+](cc2c(OC)c1OC)CCC4CCC3 (configuration not stated) | > 100 µM (inactive) | > 100 µM (inactive) | 20.4 µM (inactive) | > 100 µM (inactive) | 17.9 µM (inactive) | > 100 µM (inactive) | > 100 µM (inactive) | > 100 µM (inactive) | > 100 µM (inactive) | > 100 | > 84.3 µM (inactive) | 51.3 µM (inactive) | > 100 µM (inactive) | > 100 µM (inactive) | > 100 µM (inactive) | > 100 µM (inactive) | > 100 µM (inactive) | > 100 µM (inactive) |  | 21.6 µM (inactive)
16 | CS(=O)(=O)C1(Br)S(=O)(=O)OCCOS1(=O)=O | > 100 µM (inactive) | > 100 µM (inactive) | > 100 µM (inactive) | > 100 µM (inactive) | > 100 µM (inactive) | > 100 µM (inactive) | > 100 µM (inactive) | > 100 µM (inactive) | > 100 µM (inactive) | > 100 | > 100 µM (inactive) | > 100 µM (inactive) | > 100 µM (inactive) | > 100 µM (inactive) | > 100 µM (inactive) | > 100 µM (inactive) | > 100 µM (inactive) |  | > 100 µM (inactive) | > 100 µM (inactive)
